Source: the supplement of paper PMC10307832

Key:
Experiment in all cases: relative viability (nuclei count vs DMSO), 5 days (fraction); higher = more cells survive
Decitabine + Crizotinib = compound: Nc1ncn([C@H]2C[C@H](O)[C@@H](CO)O2)c(=O)n1 [Decitabine] + C[C@@H](Oc1cc(-c2cnn(C3CCNCC3)c2)cnc1N)c1c(Cl)ccc(F)c1Cl [Crizotinib] (partner 1 µM)
Outline: (§1)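 Five library-drug doses in √10 steps were combined with a fixed anchor-drug dose, or a single drug was given alone, by pin tool to lung cancer cell lines in 1536-well plates the day after seeding. Nuclei were stained and counted after 5 days. Relative viability is the nuclei count in treated wells over that in vehicle wells, taken as the median of duplicate plates.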

Cediranib + Vorinostat = compound: COc1cc2c(Oc3ccc4[nH]c(C)cc4c3F)ncnc2cc1OCCCN1CCCC1 [Cediranib] + O=C(CCCCCCC(=O)Nc1ccccc1)NO [Vorinostat] (partner 1 µM)
Outline: as §1

[1] = compound: O=C(C[C@H]1NCCC[C@@H]1O)Cn1cnc2cc(Br)c(Cl)cc2c1=O (racemic) [Halofuginone] + C[C@]1(O)C[C@@H](c2nc(-c3ccc4ccc(-c5ccccc5)nc4c3)c3c(N)nccn32)C1 [Linsitinib] (partner 1 µM)
Outline: as §1

Cediranib + Crizotinib = compound: COc1cc2c(Oc3ccc4[nH]c(C)cc4c3F)ncnc2cc1OCCCN1CCCC1 [Cediranib] + C[C@@H](Oc1cc(-c2cnn(C3CCNCC3)c2)cnc1N)c1c(Cl)ccc(F)c1Cl [Crizotinib] (partner 1 µM)
Outline: as §1

| Cell Line | relative viability (Decitabine + Crizotinib; first compound 0.1265 µM) | relative viability (Decitabine + Crizotinib; first compound 0.4 µM) | relative viability (Decitabine + Crizotinib; first compound 1.265 µM) | relative viability (Decitabine + Crizotinib; first compound 4 µM) | relative viability (Cediranib + Vorinostat; first compound 0.04 µM) | relative viability (Cediranib + Vorinostat; first compound 0.4 µM) | relative viability (Cediranib + Vorinostat; first compound 1.265 µM) | relative viability (Cediranib + Vorinostat; first compound 4 µM) | relative viability ([1]; first compound 0.001 µM) | relative viability ([1]; first compound 0.003162 µM) | relative viability ([1]; first compound 0.01 µM) | relative viability ([1]; first compound 0.03162 µM) | relative viability ([1]; first compound 0.1 µM) | relative viability (Cediranib + Crizotinib; first compound 0.04 µM) | relative viability (Cediranib + Crizotinib; first compound 0.1265 µM) | relative viability (Cediranib + Crizotinib; first compound 0.4 µM) | relative viability (Cediranib + Crizotinib; first compound 1.265 µM) | relative viability (Cediranib + Crizotinib; first compound 4 µM) | relative viability (Decitabine + Crizotinib; first compound 0.04 µM) | relative viability (Cediranib + Vorinostat; first compound 0.1265 µM) |
| --- | --- | --- | --- | --- | --- | --- | --- | --- | --- | --- | --- | --- | --- | --- | --- | --- | --- | --- | --- | --- |
| PC-3 [JPC-3] | 0.728 | 0.388 | 0.536 | 0.516 | 0.771 | 0.765 | 0.855 | 0.797 | 0.981 | 0.987 | 0.911 | 1.01 | 0.941 | 1.05 | 1.04 | 1.01 | 1.02 | 0.857 |  |  |
| LCLC-103H | 1.02 | 0.78 | 0.82 | 0.79 | 0.824 | 0.767 | 0.78 | 0.898 | 1.12 | 1.48 | 1.04 | 1.09 | 1.01 | 0.995 | 1.09 | 1.02 | 1.07 | 1.07 | 1.01 | 0.572 |
| EKVX | 0.73 | 0.503 | 0.396 | 0.364 | 0.956 | 0.63 | 0.916 | 0.697 | 1.02 | 0.966 | 0.916 | 1.06 | 0.762 | 0.933 | 0.92 | 0.936 | 0.895 | 0.975 | 0.828 | 0.534 |
| NCI-H460 | 0.623 | 0.22 | 0.186 | 0.126 | 0.795 | 0.661 | 0.678 | 0.822 | 0.696 | 0.833 | 0.78 | 0.404 | 0.0417 | 0.867 | 0.906 | 0.815 | 0.889 | 0.935 | 0.524 | 0.792 |
| NCI-H727 | 0.513 | 0.537 | 0.341 | 0.33 | 0.934 | 1.08 | 1.21 | 1.27 | 0.324 | 0.427 | 0.415 | 0.243 | 0.132 | 0.927 | 0.758 | 0.876 | 0.671 | 0.736 | 0.711 | 0.913 |
| NCI-H838 | 0.314 | 0.228 | 0.248 | 0.2 | 0.703 | 0.678 | 0.763 | 0.838 | 1.03 | 0.857 | 0.94 | 0.549 | 0.127 | 0.798 | 0.898 | 0.817 | 0.811 | 0.748 | 0.389 | 0.712 |
| H3255 | 0.82 | 0.419 | 0.537 | 0.484 | 0.921 | 0.706 |  | 0.735 | 0.913 | 0.952 | 0.876 | 0.941 | 0.805 | 0.945 | 0.699 | 0.825 | 0.925 | 0.861 | 0.417 |  |
| EPLC-272H | 0.587 |  | 0.414 | 0.402 | 0.38 | 0.401 | 0.527 | 0.383 | 1.28 | 1.17 | 1.06 | 1.2 | 1.13 | 0.735 |  | 0.945 | 1.04 | 0.906 | 0.587 | 0.448 |
| NCI-H647 | 0.704 | 0.549 | 0.211 | 0.174 | 0.689 | 0.56 | 0.509 | 0.684 | 1.35 | 1.06 | 1.03 | 0.665 | 0.173 | 1.24 | 1.03 | 0.86 | 1.1 | 1.18 | 0.852 | 0.594 |
| LXF-289 | 0.557 | 0.432 | 0.341 | 0.308 | 0.754 | 0.724 | 0.812 | 0.787 | 0.938 | 1.05 | 0.877 | 0.954 | 0.923 | 0.831 | 0.727 | 0.782 | 0.838 | 0.804 | 0.579 |  |
| NCI-H1755 | 0.811 | 0.804 | 0.53 | 0.317 | 0.808 | 0.683 | 0.763 | 0.762 | 1.06 | 1.02 | 0.971 | 0.985 | 0.768 | 0.888 | 0.845 | 0.838 | 0.855 | 0.848 | 0.762 | 0.65 |
| HCC-15 | 0.643 | 0.333 | 0.412 | 0.355 | 0.814 | 0.821 | 0.907 | 0.916 | 0.914 | 0.908 | 0.839 | 0.92 | 0.688 | 0.93 |  | 0.787 | 0.816 | 0.828 | 0.705 |  |
| EMC-BAC-2 | 0.656 | 0.454 | 0.483 | 0.402 | 0.403 | 0.407 | 0.485 | 0.499 | 0.813 | 0.872 | 0.798 | 0.785 | 0.641 | 0.782 | 0.703 | 0.754 | 0.785 | 0.853 | 0.64 |  |
| NCI-H1734 | 0.603 | 0.593 | 0.396 | 0.304 | 0.718 | 0.77 | 0.768 | 0.911 | 0.904 | 0.947 | 0.888 | 0.938 | 0.416 | 0.604 | 0.612 | 0.551 | 0.691 | 0.695 | 0.515 | 0.805 |
